SMILES strings stand for the structures.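 Protocol summary: plate cells (96-well), add compound at 5 concentrations, incubate 48 h, interpolate endpoints linearly. TGI is the concentration that stops growth completely.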

Some test systems named below: RXF-631 renal; MDA-N; T-47D breast.
What all share (assay): NCI-60 cell line screen, 48 h

In the case of `c1coc(CNc2ncnc3[nH]ncc23)c1`, the TGI with RXF-631 renal is more than 100 µM. For the molecule `Cc1cc2c(cc1C)OC(=O)CC2`, the TGI with MDA-N and in the experiment on T-47D breast was more than 100 µM in each case.

These data come from PubChem BioAssay (NCI).
